This is an account of results in patent US8642622B2, “Piperidinyl compound as a modulator of chemokine receptor activity” (Bristol-Myers Squibb Company, priority 2010, dated 2014).

Data set [1] in a line: Single-dose pharmacokinetics in dogs. As to conditions: dog. It counts as in vivo. The protocol: Serial blood samples were collected for all studies at various time points post dose (0.17 (or 0.25 for oral), 0.5, 0.75, 1, 2, 4, 6, 8 and 24 h, for example). Plasma samples were analyzed by LC-MS/MS.
Data set [2] can be described thus: Single-dose pharmacokinetics in rats. As to conditions: male, Sprague-Dawley, rat, plasma; for bioavailability: po. It counts as in vivo. The protocol: Serial blood samples were collected for all studies from the jugular vein at various time points post dose (0.17 (or 0.25 for oral), 0.5, 0.75, 1, 2, 4, 6, 8 and 24 h, for example). Plasma samples were analyzed by LC-MS/MS.
Additional studies evaluating suspensions of crystalline drug substance in aqueous medium were performed as described above.

Data set [3] in a line: Electrocardiography in anesthetized rabbits (rabbit in vivo EP effect). The procedure: A dose-response study of test compound was conducted in anesthetized rabbits to assess the cardiac electrophysiologic profile established in the cellular ion channel assays.
Experiments were performed in propofol-fentanyl anesthetized closed-chest male rabbits. A body surface electrocardiogram (ECG) and an intra-cardiac His-bundle electrogram were continuously monitored and recorded during the studies, using a PoNeMah system and a Prucka electrophysiological recording system, respectively. Test compound was prepared on the day of study in a vehicle of PEG400:ethanol:water (1:1:1) at a dosing concentration of 30 mg/mL. Test compound (n=3) or vehicle (n=3) was given intravenously over 5 minutes via an infusion pump at incremental doses of 3, 10 and 30 mg/kg. The interval between doses was 10 minutes, allowing for a 5-minute test agent infusion and a 5-minute rest period. Blood was sampled at baseline (pre-drug infusion) and immediately at the end of each infusion. For the 30 mg/kg dose, additional blood samples were taken at 10, 20 and 30 minutes after the end of infusion.
PR interval, QRS duration and QT interval were averaged from a 1 minute ECG recording period at time of blood sampling. QT interval was corrected for heart rate effects using both Fridericia (QTcf) and Van der Water (QTcv) formulae. AH and HV intervals, representing A-V node conduction and His-Purkinje conduction, respectively, were assessed by manual measurements from the His-bundle electrogram. Data were expressed as percent change from pre-drug baseline (mean±SEM) for PR, QRS, AH and HV intervals as well as delta change from the pre-drug infusion baseline (mean±SEM) for QTc intervals. Changes of 10% in PR, QRS, and AH intervals, and 20% in HV interval, as well as >10 ms in QTc interval are considered significant based on experience with the model.

Data set [4] deals with T1, human cardiac sodium channel, SCNSA (Homo sapiens, UniProt Q14524).
T1 construct: expressed in transfected cells; host or cells: HEK-293
T1 sequence (Q14524 whole entry): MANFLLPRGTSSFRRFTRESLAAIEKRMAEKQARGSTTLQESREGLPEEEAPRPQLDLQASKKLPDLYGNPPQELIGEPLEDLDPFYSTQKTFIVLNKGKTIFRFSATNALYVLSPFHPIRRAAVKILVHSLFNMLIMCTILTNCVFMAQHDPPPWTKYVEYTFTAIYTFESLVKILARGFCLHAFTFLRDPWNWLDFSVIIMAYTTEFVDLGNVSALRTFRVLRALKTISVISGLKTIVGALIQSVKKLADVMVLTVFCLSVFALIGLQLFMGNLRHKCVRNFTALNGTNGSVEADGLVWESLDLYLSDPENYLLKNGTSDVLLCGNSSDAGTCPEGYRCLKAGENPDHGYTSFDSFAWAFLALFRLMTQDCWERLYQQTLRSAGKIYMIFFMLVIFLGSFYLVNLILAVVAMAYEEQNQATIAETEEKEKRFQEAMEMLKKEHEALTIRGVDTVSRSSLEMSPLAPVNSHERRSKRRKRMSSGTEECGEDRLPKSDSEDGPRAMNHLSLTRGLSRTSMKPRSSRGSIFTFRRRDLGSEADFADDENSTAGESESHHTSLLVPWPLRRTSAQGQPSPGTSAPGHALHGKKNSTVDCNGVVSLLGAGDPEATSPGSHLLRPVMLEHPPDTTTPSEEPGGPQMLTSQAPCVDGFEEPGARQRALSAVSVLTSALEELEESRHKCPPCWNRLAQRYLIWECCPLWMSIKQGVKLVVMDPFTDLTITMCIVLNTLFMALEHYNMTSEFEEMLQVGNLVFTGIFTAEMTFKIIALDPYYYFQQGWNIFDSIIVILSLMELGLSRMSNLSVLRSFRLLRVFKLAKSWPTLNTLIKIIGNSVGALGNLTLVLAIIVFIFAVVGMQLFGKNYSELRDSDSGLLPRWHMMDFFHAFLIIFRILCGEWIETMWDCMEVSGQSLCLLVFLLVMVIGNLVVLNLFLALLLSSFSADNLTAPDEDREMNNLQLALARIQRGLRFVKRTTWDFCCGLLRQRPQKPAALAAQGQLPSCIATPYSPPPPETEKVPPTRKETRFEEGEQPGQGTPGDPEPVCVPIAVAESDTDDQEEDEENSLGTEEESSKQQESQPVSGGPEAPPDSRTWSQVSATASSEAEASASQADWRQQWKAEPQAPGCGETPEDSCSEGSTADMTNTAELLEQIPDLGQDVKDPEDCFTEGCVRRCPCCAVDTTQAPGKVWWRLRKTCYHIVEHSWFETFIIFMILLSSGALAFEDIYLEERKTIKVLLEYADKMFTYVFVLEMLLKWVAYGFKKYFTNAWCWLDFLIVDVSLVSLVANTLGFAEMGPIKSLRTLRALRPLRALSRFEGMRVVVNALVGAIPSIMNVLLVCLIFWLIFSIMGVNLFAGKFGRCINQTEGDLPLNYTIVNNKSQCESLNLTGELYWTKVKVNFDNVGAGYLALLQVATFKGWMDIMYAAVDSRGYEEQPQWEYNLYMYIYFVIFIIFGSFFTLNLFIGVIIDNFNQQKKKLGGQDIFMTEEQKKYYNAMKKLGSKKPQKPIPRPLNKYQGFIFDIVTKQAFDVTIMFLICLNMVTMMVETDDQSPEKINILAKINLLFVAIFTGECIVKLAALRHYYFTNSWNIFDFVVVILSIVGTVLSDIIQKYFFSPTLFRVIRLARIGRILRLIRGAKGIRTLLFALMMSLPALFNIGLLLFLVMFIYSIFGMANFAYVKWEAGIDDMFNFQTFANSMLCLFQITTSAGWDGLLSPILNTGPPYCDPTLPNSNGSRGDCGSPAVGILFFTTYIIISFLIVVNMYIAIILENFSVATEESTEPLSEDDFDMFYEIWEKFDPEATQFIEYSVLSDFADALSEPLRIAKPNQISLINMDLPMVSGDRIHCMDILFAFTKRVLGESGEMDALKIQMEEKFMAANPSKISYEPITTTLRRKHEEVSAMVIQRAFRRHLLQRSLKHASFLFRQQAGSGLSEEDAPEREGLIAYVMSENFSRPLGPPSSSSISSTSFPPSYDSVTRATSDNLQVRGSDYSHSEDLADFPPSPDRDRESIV
The experiment in a line: Sodium channel whole-cell patch-clamp assay. In kind it is cell-based. As to conditions: HEK293, HEK-293, protein-free buffer, read-out: Na channel, % inh. The procedure: Whole-cell patch-clamp was used to directly measure inward sodium currents in HEK-293 cells expressing the human cardiac sodium channel, SCNSA. After reach steady-state effect in the presence of drug, rate-dependence was assessed by stimulation at frequencies of 1 Hz and 4 Hz. Experiments were carried out using an aqueous buffer at pH 7.4 and at room temperature. There is no protein in the buffer and drug concentrations reported are nominal free drug levels. Test article was evaluated up to 10 μM (protein-free buffer). […] Data is reported as percent inhibition at a fixed concentration.

The next data set addresses T2, hERG potassium channel (Homo sapiens, UniProt Q12809).
T2 construct: expressed in transfected cells
Briefly: hERG patch clamp assay. The settings on record: HEK-293 cells stably expressing hERG, pH 7.4, HEK-293, protein-free buffer, read-out: hERG channel, % inh. It counts as cell-based. The procedure: Whole-cell patch-clamp was used to directly measure hERG tail currents in HEK-293 cells stably expressing the cloned hERG potassium channel α subunit. Effects of compounds were calculated by measuring inhibition of peak tail current. Experiments were carried out using an aqueous buffer with pH 7.4 at room temperature. There was no protein in the assay buffer. The test concentrations reported are nominal free drug levels. Data is reported as percent inhibition at a fixed concentration.

Data set [5] can be described thus: Human liver microsomal metabolism, Assay Conditions A. In kind it is in vitro ADME. As to conditions: 0.5 μM compound, 10 minutes, 37° C. The protocol: Test compound is received as a 3.5 mM stock solution in 100 percent DMSO. Compound is diluted to create a 50 μM acetonitrile (ACN) solution containing 1.4% DMSO, which is then used as a 100× stock for incubation with microsomes. Each compound is tested in duplicate separately in each of three species in the Metabolic Stability-Human, Rat, and Mouse assay suite or as individual species in the Metabolic Stability-Dog or Metabolic Stability-Monkey suites. Compound, NADPH and liver microsome solutions are combined for incubation in three steps:
152 μL of liver microsome suspension, protein concentration of 1.1 mg/mL in 100 mM NaPi, pH 7.4, 6.6 mM MgCl2 buffer, is pre-warmed at 37° C.
• 1) 1.7 μL of 50 μM compound (98.6% ACN, 1.4% DMSO) is added to the same tube and pre-incubated at 37° C. for 5 minutes. • 2) The reaction is initiated by the addition of 17 μL of pre-warmed 10 mM NADPH solution in 100 mM NaPi, pH 7.4. • 3) Reaction components are mixed well, and 75 μL are immediately transferred into 150 μl quench/stop solution (zero-time point, To). Reactions are incubated at 37° C. for 10 minutes and then an additional 75 μL aliquot is transferred into 150 μL quench solution. Acetonitrile containing 100 μM DMN (a UV standard for injection quality control), is used as the quench solution to terminate metabolic reactions. • 4) Quenched mixtures are centrifuged at 1500 rpm (˜500×g) in an Allegra X-12 centrifuge, SX4750 rotor (Beckman Coulter Inc., Fullerton, Calif.) for fifteen minutes to pellet denatured microsomes. A volume of 90 μL of supernatant extract, containing the mixture of parent compound and its metabolites, is then transferred to a separate 96-well plate for UV-LC/MS-MS analysis to determine the percent of parent compound that is remaining in the mixture.

The structures appear in SMILES notation.

T2 sequence (Q12809 whole entry): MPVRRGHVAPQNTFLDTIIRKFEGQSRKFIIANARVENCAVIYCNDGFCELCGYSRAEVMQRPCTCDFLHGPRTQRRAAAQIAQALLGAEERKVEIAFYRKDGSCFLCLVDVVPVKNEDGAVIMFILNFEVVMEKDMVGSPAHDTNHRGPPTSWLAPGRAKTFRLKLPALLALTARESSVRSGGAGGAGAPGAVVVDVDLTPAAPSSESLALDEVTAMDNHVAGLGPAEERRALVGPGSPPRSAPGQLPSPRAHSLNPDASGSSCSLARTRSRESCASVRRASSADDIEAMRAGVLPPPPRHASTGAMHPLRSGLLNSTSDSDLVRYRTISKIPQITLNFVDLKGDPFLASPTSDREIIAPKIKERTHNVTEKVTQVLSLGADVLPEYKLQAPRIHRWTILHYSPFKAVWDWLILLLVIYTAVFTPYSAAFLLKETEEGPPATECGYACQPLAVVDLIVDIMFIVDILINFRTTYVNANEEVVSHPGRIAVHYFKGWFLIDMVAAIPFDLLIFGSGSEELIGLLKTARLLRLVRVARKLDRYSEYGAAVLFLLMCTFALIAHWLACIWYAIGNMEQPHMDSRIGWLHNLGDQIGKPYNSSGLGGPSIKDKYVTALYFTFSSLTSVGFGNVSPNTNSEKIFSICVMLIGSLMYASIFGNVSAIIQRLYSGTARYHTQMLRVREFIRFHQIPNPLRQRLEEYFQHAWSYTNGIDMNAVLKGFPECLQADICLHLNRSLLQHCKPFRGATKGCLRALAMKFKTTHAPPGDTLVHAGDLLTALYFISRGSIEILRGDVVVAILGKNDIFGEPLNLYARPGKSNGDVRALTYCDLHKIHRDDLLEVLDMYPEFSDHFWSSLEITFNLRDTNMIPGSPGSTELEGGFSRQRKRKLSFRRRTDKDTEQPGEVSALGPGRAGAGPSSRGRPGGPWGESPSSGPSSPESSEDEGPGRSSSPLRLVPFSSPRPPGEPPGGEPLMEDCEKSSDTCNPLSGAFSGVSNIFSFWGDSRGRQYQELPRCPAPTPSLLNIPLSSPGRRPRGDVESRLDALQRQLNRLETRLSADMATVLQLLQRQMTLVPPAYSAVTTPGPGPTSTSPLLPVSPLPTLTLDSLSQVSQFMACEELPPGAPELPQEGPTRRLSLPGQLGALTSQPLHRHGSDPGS

On to `CC(C)[C@@H](NC(=O)[C@@H]1CCC(F)(F)C1)C(=O)N1CC[C@](O)(c2ccc(Cl)cc2)[C@@](C)(O)C1` [Compound I, (R)—N—((R)-1-((3S,4S)-4-(4-chlorophenyl)-3,4-dihydroxy-3-methylpiperidin-1-yl)-3-methyl-1-oxobutan-2-yl)-3,3-difluorocyclopentanecarboxamide], for which, in data set [1], the “decrease of in vivo clearance (CL) relative to the compared compounds” value is 8-13 fold. Besides, the clearance in data set [1] (male, beagle, plasma, intravenous) is 0.6 mL/min/kg; in data set [2] (intravenous), 26 mL/min/kg. The bioavailability turned out to be 82% in data set [1] (male, beagle, plasma, oral solution, read-out: dog oral bioavailability when dosed as solution); 84% in data set [2] (crystalline suspension in aqueous medium, read-out: Relative bioavailability when dosed as a crystalline suspension); 43% in data set [2] (oral solution, read-out: Rat oral bioavailability when dosed as solution). For the same molecule, the “Cmax: Free drug (at NOEL dose)” value in data set [3] (at NOEL dose, free drug) is 52 µM. The “Cmax: Free drug (at QT effect dose)” value in data set [3] (at QT effect dose, free drug) was found to be 52 µM. Moreover, the NOEL dose in data set [3] (i.v. infusion) was found to be 30 mg/kg. In data set [3] (i.v. infusion 3, 10, 30 mg/kg), the “QT effect Dose” value was more than 30 mg/kg. For the same molecule, the “QTcf, delta” value in data set [3] (i.v. infusion, change from pre-drug baseline) was “No effect”. The molecule further displayed a Cmax in data set [3] (male, blood, iv, at QT effect dose, total drug) of 96 µM. Also, in data set [4], the inhibition at 10 µM came out at 21%. Also, the inhibition at 30 µM on hERG potassium channel was found to be 22%.

With `CC(C)COC(=O)N[C@@H](C(=O)N1CC[C@](O)(c2ccc(Cl)cc2)C(C)(C)C1)C(C)C` [Example 1083], in data set [5], the “Human Liver Microsomal Metabolism % remaining (Assay Conditions A)” value is given as 13% (A).
